# Assay results as given in patent US20100184786A1, “Polar Quinazolines” (Wyeth LLC, priority 2008, published 2010).
# Legend:
# [1] = Brain penetration data; assay type: in vivo; conditions: brain/blood, read-out: Brain/Blood ratio
# [2] = biological target: T1, human LXRβ (Homo sapiens, UniProt P55055); assay: Ligand-binding test procedure for human LXRβ (3H T0901317 tracer, flash plates); conditions: competition with 3H T0901317; read-out: hLXRb binding IC50
# T1 construct: biotin (biotinylated); made in house; host or cells: E. coli
# T1 sequence (P55055 1-460): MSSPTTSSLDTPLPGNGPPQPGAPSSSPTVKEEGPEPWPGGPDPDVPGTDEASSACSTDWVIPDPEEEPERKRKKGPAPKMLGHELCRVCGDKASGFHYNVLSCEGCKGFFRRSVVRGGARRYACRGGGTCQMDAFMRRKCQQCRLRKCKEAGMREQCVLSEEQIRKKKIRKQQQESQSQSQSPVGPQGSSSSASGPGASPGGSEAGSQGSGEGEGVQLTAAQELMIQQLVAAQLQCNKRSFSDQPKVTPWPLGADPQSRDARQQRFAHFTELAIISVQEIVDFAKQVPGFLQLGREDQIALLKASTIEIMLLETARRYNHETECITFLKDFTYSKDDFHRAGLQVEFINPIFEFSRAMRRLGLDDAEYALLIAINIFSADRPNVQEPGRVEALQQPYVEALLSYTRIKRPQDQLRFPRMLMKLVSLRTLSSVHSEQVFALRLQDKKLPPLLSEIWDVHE
# Method: I. Ligand-Binding Test Procedure for Human LXRβ.
# • Buffer: 100 mM KCl, 100 mM TRIS (pH 7.4 at +4° C.), 8.6% glycerol, 0.1 mM PMSF*, 2 mM MTG*, 0.2% CHAPS (* not used in wash buffer) • Tracer: ^3H T0901317 • Receptor source: E. coli extracted from cells expressing biotinylated hLXRβ. Extract was made in a similar buffer as above, but with 50 mM TRIS.
# • Washed streptavidin and coated flash plates with wash buffer. • Diluted receptor extract to give Bmax˜4000 cpm and add to the wells. • Wrapped the plates in aluminum foil and stored them at +4° C. overnight.
# (§1) • Made a dilution series in DMSO of the test ligands. • Made a 5 nM solution of the radioactive tracer in buffer. • Mixed 2500 diluted tracer with 50 of the test ligand from each concentration of the dilution series. • Washed the receptor-coated flash plates. • Added 2000 per well of the ligand/radiolabel mixture to the receptor-coated flash plates. • Wrapped the plates in aluminum foil and incubate at +4° C. over night.
# • Aspirated wells, and washed the flashed plates. Sealed the plate. • Measured the remaining radioactivity in the plate.
# [3] = tested on: ABCA1 gene; assay: Gene regulation by LXR (murine): ABCA1 gene regulation, mRNA by real-time PCR; assay type: cell-based; conditions: Mus musculus; for Emax: read-out: Agonism ABCA1
# [4] = biological target: T2, human LXRα (Homo sapiens, UniProt Q13133); assay: Ligand-binding test procedure for human LXRα (3H T0901317 tracer, flash plates); conditions: competition with 3H T0901317; read-out: hLXRa binding IC50
# T2 construct: biotin (biotinylated); made in house; host or cells: E. coli
# T2 sequence (Q13133 1-447): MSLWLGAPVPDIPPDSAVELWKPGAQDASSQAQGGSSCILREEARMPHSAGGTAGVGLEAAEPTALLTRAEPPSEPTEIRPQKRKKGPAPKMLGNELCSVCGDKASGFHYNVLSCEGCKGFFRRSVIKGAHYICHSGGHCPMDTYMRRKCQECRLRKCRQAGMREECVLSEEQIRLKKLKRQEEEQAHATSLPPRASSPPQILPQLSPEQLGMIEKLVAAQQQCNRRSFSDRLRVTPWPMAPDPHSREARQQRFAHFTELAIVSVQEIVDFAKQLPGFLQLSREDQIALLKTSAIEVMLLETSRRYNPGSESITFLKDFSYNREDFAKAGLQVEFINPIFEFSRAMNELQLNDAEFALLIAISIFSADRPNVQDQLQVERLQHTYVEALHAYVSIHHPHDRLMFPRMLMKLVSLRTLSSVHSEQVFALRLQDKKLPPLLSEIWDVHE
# Method: II. Ligand-Binding Test Procedure for Human LXRa.
# • Buffer: 100 mM KCl, 100 mM TRIS (pH 7.4 at +4° C.), 8.6% glycerol, 0.1 mM PMSF*, 2 mM MTG*, 0.2% CHAPS (* not used in wash buffer) • Tracer: ^3H T0901317 • Receptor source: E. coli extract from cells expressing biotinylated hLXRα. Extract was made in a similar buffer as above, but with 50 mM TRIS.
# • Washed streptavidin and coated flash plates with wash buffer. • Diluted receptor extract to give Bmax˜4000 cpm and add to the wells. • Wrapped the plates in aluminum foil and stored them at +4° C. over night.
# as §1
# • Aspirated wells, and wash the flashed plates. Sealed the plate. • Measured the remaining radioactivity in the plate.
SMILES,Kp [1],IC50 [2],EC50 [3],IC50 [4],Emax [3]
Cc1nc(-c2cccc(-c3cccc(S(C)(=O)=O)c3)c2)c2cccc(C(F)(F)F)c2n1,2.27,,,,
CCS(=O)(=O)c1cccc(Oc2ccc(Cl)c(-c3nc(C)nc4c(C(F)(F)F)cccc34)c2)c1,1.57,,,,
"NC(=O)CCCS(=O)(=O)c1cccc(Oc2ccc(Cl)c(-c3ncnc4c(C(F)(F)F)cccc34)c2)c1 [Example 9, 4-[(3-{4-chloro-3-[8-(trifluoromethyl)quinazolin-4-yl]phenoxy}phenyl)sulfonyl]-butanamide]",0.06,41 nM,1900 nM,407 nM,91%
"CS(=O)(=O)CCCCS(=O)(=O)c1cccc(Oc2ccc(F)c(-c3ncnc4c(C(F)(F)F)cccc34)c2)c1 [Example 37, 4-[2-fluoro-5-(3-{[4-(methylsulfonyl)butyl]sulfonyl}phenoxy)phenyl]-8-(trifluoromethyl)-quinazoline]",,66 nM,415 nM,536 nM,77%
"Cc1nc(-c2cc(Oc3cccc(S(=O)(=O)CCCCC#N)c3)ccc2Cl)c2cccc(C(F)(F)F)c2n1 [Example 61, 5-[(3-{4-chloro-3-[2-methyl-8-(trifluoromethyl)quinazolin-4-yl]phenoxy}phenyl)sulfonyl]-pentanenitrile]",,97 nM,,2800 nM,27%

# Continued, in another order:
Kp [1],IC50 [2],EC50 [3],IC50 [4],SMILES,Emax [3]
1.45,,,,CS(=O)(=O)c1cccc(Oc2ccc(F)c(-c3ncnc4c(C(F)(F)F)cccc34)c2)c1,
1.2,,,,CS(=O)(=O)c1cccc(Oc2ccc(F)c(-c3ncnc4c(Cl)cccc34)c2)c1,
1.2,,,,CCS(=O)(=O)c1cccc(Oc2ccc(F)c(-c3ncnc4c(Cl)cccc34)c2)c1,
0.16,40 nM,1760 nM,425 nM,"N#CCS(=O)(=O)c1cccc(Oc2ccc(Cl)c(-c3ncnc4c(C(F)(F)F)cccc34)c2)c1 [Example 11, [(3-{4-chloro-3-[8-(trifluoromethyl)quinazolin-4-yl]phenoxy}phenyl)sulfonyl]-acetonitrile]",95%
0.55,112 nM,2470 nM,1520 nM,"N#CCCCS(=O)(=O)c1cccc(Oc2ccc(F)c(-c3ncnc4c(C(F)(F)F)cccc34)c2)c1 [Example 25, 4-[(3-{4-fluoro-3-[8-(trifluoromethyl)quinazolin-4-yl]phenoxy}phenyl)sulfonyl]butanenitrile]",68%
,59 nM,1010 nM,660 nM,"CS(=O)(=O)CCCS(=O)(=O)c1cccc(Oc2ccc(F)c(-c3ncnc4c(C(F)(F)F)cccc34)c2)c1 [Example 32, 4-[2-fluoro-5-(3-{[3-(methylsulfonyl)propyl]sulfonyl}phenoxy)phenyl]-8-(trifluoromethyl)-quinazoline]",78%
,107 nM,1800 nM,2030 nM,"N#CCCCCS(=O)(=O)c1cccc(Oc2ccc(F)c(-c3ncnc4c(Cl)cccc34)c2)c1 [Example 52, 5-({3-[3-(8-chloroquinazolin-4-yl)-4-fluorophenoxy]phenyl}sulfonyl)pentanenitrile]",74%
